Data taken from PubChem BioAssay AID1963848 (Molecular Pharmacology Branch, DTP, NCI, 2024).

System: 379773-124-R-J2-PDC spheroid viability
Test: Anticancer human tumor 379773-124-R-J2-PDC patient-derived endometrial carcinoma cell line growth inhibition [POLQ]
Conditions: spheroids with HUVEC and MSC; for IC50: curve of first compound; for viability, T/C: stronger effect = lower value
In short: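 Growth inhibition in 3D: complex spheroids (tumor PDC, HUVEC, MSC) treated with POLQ inhibitor combinations; where Cmax unknown, highest tested concentration 10 microM, except SN-38 at 1 microM.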

[1] = second compound 0.0316 µM, first compound 0.00316 µM
[2] = second compound 0.0316 µM, first compound 0.01 µM
[3] = second compound 0.0316 µM, first compound 0.0316 µM
[4] = second compound 0.0316 µM, first compound 0.1 µM
[5] = second compound 0.1 µM, first compound 0.00316 µM
[6] = second compound 0.1 µM, first compound 0.01 µM
[7] = second compound 0.1 µM, first compound 0.0316 µM
[8] = second compound 0.1 µM, first compound 0.1 µM
[9] = second compound 0.316 µM, first compound 0.00316 µM
[10] = second compound 0.316 µM, first compound 0.01 µM
[11] = second compound 0.316 µM, first compound 0.0316 µM
[12] = second compound 0.316 µM, first compound 0.1 µM
[13] = second compound 1 µM, first compound 0.00316 µM
[14] = second compound 1 µM, first compound 0.01 µM
[15] = second compound 1 µM, first compound 0.0316 µM
[16] = second compound 1 µM, first compound 0.1 µM
[17] = second compound 3.16 µM, first compound 0.00316 µM
[18] = second compound 3.16 µM, first compound 0.01 µM
[19] = second compound 3.16 µM, first compound 0.0316 µM
[20] = second compound 3.16 µM, first compound 0.1 µM
[21] = second compound 10 µM, first compound 0.00316 µM
[22] = second compound 10 µM, first compound 0.01 µM
[23] = second compound 10 µM, first compound 0.0316 µM
[24] = second compound 10 µM, first compound 0.1 µM
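Note: spheroids exposed to drugs for seven days before readout.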
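Throughout, for viability, T/C: percent viability relative to DMSO vehicle control taken as 100%.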

In the case of `C=CCn1c(=O)c2cnc(Nc3ccc(N4CCN(C)CC4)cc3)nc2n1-c1cccc(C(C)(C)O)n1` + COC1C(OC(N)=O)C(O)C(Oc2ccc3c(O)c(NC(=O)c4ccc(O)c(CC=C(C)C)c4)c(=O)oc3c2C)OC1(C)C, the IC50 (second compound 0.0316 µM) is reported as 453 nM, the IC50 (second compound 0.1 µM) is reported as 425 nM and the IC50 (second compound 0.316 µM) is reported as 354 nM. It also gave an IC50 (second compound 1 µM) of 487 nM, an IC50 (second compound 3.16 µM) of 472 nM and an IC50 (second compound 10 µM) of 436 nM. For the same molecule, the viability, T/C [1] was 84.1%, the viability, T/C [2] was 74.3% and the viability, T/C [3] was 89.5%. The viability, T/C [4] was 79.7%, the viability, T/C (second compound 0.0316 µM, first compound 0.316 µM) was 71.9% and the viability, T/C (second compound 0.0316 µM, first compound 1 µM) was 1.84%. For the same molecule, the viability, T/C [5] was 82.8%, the viability, T/C [6] was 73.7% and the viability, T/C [7] was 85.3%. It also gave a viability, T/C [8] of 81.7%, a viability, T/C (second compound 0.1 µM, first compound 0.316 µM) of 66.2% and a viability, T/C (second compound 0.1 µM, first compound 1 µM) of 3.04%. The viability, T/C [9] was 87.9%, the viability, T/C [10] was 74.8% and the viability, T/C [11] was 88.3%. It also gave a viability, T/C [12] of 88%, a viability, T/C (second compound 0.316 µM, first compound 0.316 µM) of 55.3% and a viability, T/C (second compound 0.316 µM, first compound 1 µM) of 2.39%. For the same molecule, the viability, T/C [13] was 80.6%, the viability, T/C [14] was 89.8% and the viability, T/C [15] was 78.3%. The viability, T/C [16] was 88.8%, the viability, T/C (second compound 1 µM, first compound 0.316 µM) was 78.2% and the viability, T/C (second compound 1 µM, first compound 1 µM) was 2.58%. The viability, T/C [17] was 85.6%, the viability, T/C [18] was 86.9% and the viability, T/C [19] was 79.6%. For the same molecule, the viability, T/C [20] was 77.5%, the viability, T/C (second compound 3.16 µM, first compound 0.316 µM) was 74.8% and the viability, T/C (second compound 3.16 µM, first compound 1 µM) was 3.31%. For the same molecule, the viability, T/C [21] was 77.5%, the viability, T/C [22] was 66.6% and the viability, T/C [23] was 103%. It also gave a viability, T/C [24] of 81%, a viability, T/C (second compound 10 µM, first compound 0.316 µM) of 68.6% and a viability, T/C (second compound 10 µM, first compound 1 µM) of 2.21%.

For `CC[C@@]1(O)C(=O)OCc2c1cc1n(c2=O)Cc2cc3c(CN(C)C)c(O)ccc3nc2-1` + COC1C(OC(N)=O)C(O)C(Oc2ccc3c(O)c(NC(=O)c4ccc(O)c(CC=C(C)C)c4)c(=O)oc3c2C)OC1(C)C, the IC50 (second compound 0.0316 µM) was 32.5 nM, the IC50 (second compound 0.1 µM) was 19.2 nM and the IC50 (second compound 0.316 µM) was 19 nM. For the same molecule, the IC50 (second compound 1 µM) was 17 nM, the IC50 (second compound 3.16 µM) was 21.9 nM and the IC50 (second compound 10 µM) was 21 nM. The viability, T/C (second compound 0.0316 µM, first compound 0.000316 µM) was 86.5%, the viability, T/C (second compound 0.0316 µM, first compound 0.001 µM) was 79.3% and the viability, T/C [1] was 85.7%. It also gave a viability, T/C [2] of 73.5%, a viability, T/C [3] of 51.2% and a viability, T/C [4] of 10.9%. For the same molecule, the viability, T/C (second compound 0.1 µM, first compound 0.000316 µM) was 73.3%, the viability, T/C (second compound 0.1 µM, first compound 0.001 µM) was 77.8% and the viability, T/C [5] was 74.1%. The viability, T/C [6] was 71.2%, the viability, T/C [7] was 33.9% and the viability, T/C [8] was 14.1%. For the same molecule, the viability, T/C (second compound 0.316 µM, first compound 0.000316 µM) was 85.7%, the viability, T/C (second compound 0.316 µM, first compound 0.001 µM) was 78.6% and the viability, T/C [9] was 78.2%. For the same molecule, the viability, T/C [10] was 71.2%, the viability, T/C [11] was 33.6% and the viability, T/C [12] was 12.1%. The viability, T/C (second compound 1 µM, first compound 0.000316 µM) was 86.4%, the viability, T/C (second compound 1 µM, first compound 0.001 µM) was 94.9% and the viability, T/C [13] was 72.6%. For the same molecule, the viability, T/C [14] was 68%, the viability, T/C [15] was 32.2% and the viability, T/C [16] was 9.89%. For the same molecule, the viability, T/C (second compound 3.16 µM, first compound 0.000316 µM) was 76.9%, the viability, T/C (second compound 3.16 µM, first compound 0.001 µM) was 71.5% and the viability, T/C [17] was 83.1%. The viability, T/C [18] was 65%, the viability, T/C [19] was 42.4% and the viability, T/C [20] was 11.6%. The viability, T/C (second compound 10 µM, first compound 0.000316 µM) was 72.9%, the viability, T/C (second compound 10 µM, first compound 0.001 µM) was 73.3% and the viability, T/C [21] was 82.5%. The viability, T/C [22] was 69.6%, the viability, T/C [23] was 38.8% and the viability, T/C [24] was 12.5%.
